Measurements published in patent US5482923A, “Heparin neutralization with platelet factor 4 fragments” (Repligen Corporation, priority 1993, dated 1996).
“Also recorded” adds a separate entry of the source.

Assays:
[1] = system: thrombin; test: Prevention of heparin inhibition of thrombin, conditions similar to the Factor Xa experiments; type: biochemical; details: for ability to prevent heparin inhibition of thrombin: in vitro; for prevention of heparin inhibition of thrombin: 1 μM
Text: (§1) The lysine rich region of PF4 (residues 61-66) is also the domain associated with the binding of heparin by PF4. Heparin is known to play a role in modulating anglogenesis, which can also be affected by protamine, another well characterized heparin-binding protein. To assess the ability of PF4-based synthetic peptides to bind heparin, we assayed the activity of coagulation-cascade enzymes which are inhibited by heparin. The Factor Xa assay used here has previously been described in Denton et al., Biochem. J., 209:455-460 (1983).
In experiments carried out under conditions similar to the Factor Xa experiments, thrombin was inhibited 99% by 0.25 units of heparin.

[2] = system: Factor Xa; test: Factor Xa assay: prevention of heparin inhibition of Factor Xa; type: biochemical; details: for ability to prevent heparin inhibition of Factor Xa: in vitro; for restoration of Factor Xa activity: low concentrations
Text: as §1
PF4 isolated from platelets and recombinant E. coli cells were compared for their abilities to prevent heparin inhibition of Factor Xa (essential for the production of thrombin) in vitro.
The abilities of protamine and rPF4 to prevent heparin-inhibition of the coagulation enzyme Factor Xa were compared. The details of the assay are described by Denton et al, 1983, Biochem. J. 209:455. In the Factor Xa assay, 0.5 units of heparin inhibited enzymatic activity almost 90%.
Similar studies and results may be obtained using certain fragments of PF4 or rPF4 that include the heparin binding region, residues 61-66.

[3] = system: normal human plasma; test: Neutralization of heparin in human plasma (APTT); details: 1 unit/ml of heparin; for restoring the APTT to its heparin-free level: added during the incubation before activated thromboplastin
Text: Neutralization of heparin in human plasma was also examined. The activated partial thromboplastin time (APTT) of normal human plasma was increased from its base level of approximately 30 seconds to 195 seconds by the addition of 1 unit/ml of heparin.

[4] = system: Sprague Dawley rats; test: In vivo effect on platelet count, white blood cell count and hematocrit in heparinized rats; parameters: species or system rat; details: for platelet count, % of initial: after heparin followed by neutralizing agent, FIGS. 4 and 5; for hematocrit levels: conditions as for FIGS. 1 and 2; for change of platelet and white blood cell counts: heparin 100 units/100 g followed by protamine sulfate 100 μg/100 g or rPF4 7.5 μg/g; for white blood cell count / platelet count: t=10 minutes, 8 min after agent, protamine sulfate 1 ug/g, PF4 7.5 ug/g; for white blood cell count: protamine sulfate group over 5 at t=0; for platelet count: t=0: protamine sulfate over 800, rPF4 700
Procedure: (§2) In Vivo experiments were performed on rats to compare the heparin neutralizing activity of protamine and PF4 and to investigate the effect of PF4 on platelet and white blood cell count.
(§3) Sprague Dawley rats (225 g) were anesthetized with pentobarbital, the trachea was intubated, and the right femoral vein and carotid artery were cannulated. The intravenous infusion of heparin was followed by infusion of either protamine or rPF4. Arterial blood samples were taken prior to and immediately after heparin infusion and at several time points following the infusion of the neutralizing agent. Controls were conducted with Ringer's solution in place of heparin and the experimental agents. Samples were used for the following determinations: clotting time, platelet count, and white blood cell count.
(§4) Referring to FIGS. 1 and 2, data are shown from a typical experiment comparing the platelet count, white blood cell count and the APTT in rats when injected with heparin followed by protamine sulfate (FIG. 1) and when injected with heparin followed by rPF4 (FIG. 2). In these Figs., heparin was injected at t=0 and either protamine sulfate or rPF4 injected two minutes thereafter (t=2 minutes). The dosages used were: heparin 1 unit/g animal wt.; protamine sulfate 1 ug/g animal wt.; and PF4 7.5 ug/g animal wt.
Experiments were also conducted to investigate hematocrit levels under conditions as described with respect to FIGS. 1 and 2. No change in hematocrit levels were observed when either PF4 or protamine were used for heparin neutralization.
(§5) Referring now to FIGS. 3 to 5, statistical bar graph data are shown comparing APTT, platelet count, (PC) and white blood cell (WBC) count in rats injected with a control solution, Ringers solution (FIG. 3), injected with heparin followed by protamine sulfate (FIG. 4) and injected with heparin followed by rPF4 (FIG. 5). The data included control rats, five rats injected with heparin followed by protamine sulfate and two rats injected with heparin followed by rPF4.
Samples A were taken before injection; samples B, 2 min after heparin injection; samples C, 10 min after heparin and 8 min after protamine sulfate injection; and samples D, 18 min after heparin injection. Data represent mean values and S.E.M. from experiments except that white blood cells and platelets were counted only in 3 samples taken at 2 and at 18 min after heparin injection. […] The decrease was statistically significant (p<0.01) as compared to samples obtained before heparin injection.
Data represent mean values and S.E.M. from 2 experiments for samples taken at times A-D as indicated in the discussion above with respect to FIG. 4.

[5] = system: Sprague Dawley rats; test: In vivo heparin neutralization in rats (APTT); parameters: species or system rat; details: for APTT after neutralizing agent: heparin 1 unit/g at t=0, agent at t=2 min, protamine sulfate 1 ug/g, PF4 7.5 ug/g, read at t=10 min
Procedure: as §2, §3, §4
as §5, with “The data included control rats, five rats injected with heparin followed by protamine sulfate and two rats injected with heparin followed by rPF4.” left out
Samples A were taken before injection; samples B, 2 min after heparin injection; samples C, 10 min after heparin and 8 min after protamine sulfate injection; and samples D, 18 min after heparin injection. Data represent mean values and S.E.M. from experiments except that white blood cells and platelets were counted only in 3 samples taken at 2 and at 18 min after heparin injection. […]

[6] = system: Sprague Dawley rats; test: In vivo effect on platelet count, white blood cell count and hematocrit in heparinized rats; parameters: species or system rat; details: low doses of rPF4 (150 μg/100g); three experiments

Substance | ability to prevent heparin inhibition of thrombin [1] | ability to prevent heparin inhibition of Factor Xa [2] | inhibition of Factor Xa enzymatic activity ([2]; 0.5 units of heparin) | activated partial thromboplastin time (APTT) ([3]; base level approximately 30 seconds) | inhibition of thrombin ([1]; 0.25 units of heparin) | restoration of Factor Xa activity ([2]; 0.5 units of heparin) | restoring the APTT to its heparin-free level [3] | prevention of heparin inhibition of thrombin ([1]; 0.25 units of heparin) | molar dose responses, rPF4 compared with protamine ([1]; 0.25 units of heparin) | platelet count, % of initial [4] | WBC count ([4]; after heparin followed by protamine sulfate, FIG. 4) | hematocrit levels [4] | respiratory problems ([4]; heparin 1 unit/g followed by protamine sulfate 1 ug/g) | change of platelet and white blood cell counts [4] | white blood cell count [4] | platelet count [4] | APTT after neutralizing agent [5] | preventing Factor Xa inhibition, compared with protamine ([2]; concentrations greater than 1 μM, 0.5 units of heparin) | effect on platelets and white blood cells [6] | neutralization of the anticoagulant effect of heparin ([5]; low doses of rPF4 (150 μg/100g), three experiments)
C-13: C-13 peptide of PF4, a PF4-based synthetic peptide (PLYKKIIKKLLES; UniProt P02776 89-101, looked up, fragment) | unable to prevent the inhibition of thrombin even at concentrations ten times that of an effective level of rPF4 |  |  |  |  |  |  |  |  |  |  |  |  |  |  |  |  |  |  | 
C-41: The 41 amino acid C-terminal peptide of PF4 (IKAGPHCPTAQLIATLKNGRKICLDLQAPLYKKIIKKLLES; UniProt P02776 61-101, looked up, fragment) | prevented heparin inhibition less effectively | prevented heparin inhibition less effectively; also recorded: demonstrated the ability to neutralize heparin in vitro |  |  |  |  |  |  |  |  |  |  |  |  |  |  |  |  |  | 
heparin [reference compound] |  |  | ~90% | 195 s | 99% |  |  |  |  |  |  |  |  |  |  |  |  |  |  | 
protamine | able to prevent the heparin inhibition of thrombin and Factor Xa at approximately equimolar concentrations | able to prevent the heparin inhibition of thrombin and Factor Xa at approximately equimolar concentrations |  |  |  | partially restored Factor Xa activity | equally effective in restoring the APTT to its heparin-free level | completely prevented heparin inhibition | no significant difference in their molar dose responses | 48±12.2% | decreased | No change | These rats also had respiratory problems | significant decrease of white blood cell count and platelet count; also recorded: drop in platelet and white blood cell counts | less than 3 ×10^3 /μl | less than 500 ×10^3 /μl | decrease in the APTT to approximately normal levels after about 10 minutes |  |  | 
rPF4: Recombinant native sequence human platelet factor 4, 70 residues, produced in E. coli as a fusion protein and cleaved with CNBr | able to prevent the heparin inhibition of thrombin and Factor Xa at approximately equimolar concentrations | able to prevent the heparin inhibition of thrombin and Factor Xa at approximately equimolar concentrations |  |  |  | partially restored Factor Xa activity | equally effective in restoring the APTT to its heparin-free level | completely prevented heparin inhibition | no significant difference in their molar dose responses | 89±4.9% |  | No change |  | did not lead to the extensive depletion of platelet and white blood cells; also recorded: did not produce a statistical decrease in platelet and white blood count | about 4 ×10^3 /μl | about 500 ×10^3 /μl | restoration of normal APTT levels | clearly more effective in preventing Factor Xa inhibition | no effect on platelets and white blood cells | partially neutralized
